According to ChEMBL document CHEMBL2073804, “Transport of the beta -O-glucuronide conjugate of the tobacco-specific carcinogen 4-(methylnitrosamino)-1-(3-pyridyl)-1-butanol (NNAL) by the multidrug resistance protein 1 (MRP1). Requirement for glutathione or a non-sulfur-containing analog” (J Biol Chem, 2001):

Target: ATP-binding cassette sub-family C member 2 (Homo sapiens, UniProt Q92887)
Experiment: TP_TRANSPORTER: uptake in membrane vesicle from MRP2-expressing HEK293T cells
Type: functional, cell membranes
Conditions: hek293

Chain of ATP-binding cassette sub-family C member 2 (Q92887 whole entry): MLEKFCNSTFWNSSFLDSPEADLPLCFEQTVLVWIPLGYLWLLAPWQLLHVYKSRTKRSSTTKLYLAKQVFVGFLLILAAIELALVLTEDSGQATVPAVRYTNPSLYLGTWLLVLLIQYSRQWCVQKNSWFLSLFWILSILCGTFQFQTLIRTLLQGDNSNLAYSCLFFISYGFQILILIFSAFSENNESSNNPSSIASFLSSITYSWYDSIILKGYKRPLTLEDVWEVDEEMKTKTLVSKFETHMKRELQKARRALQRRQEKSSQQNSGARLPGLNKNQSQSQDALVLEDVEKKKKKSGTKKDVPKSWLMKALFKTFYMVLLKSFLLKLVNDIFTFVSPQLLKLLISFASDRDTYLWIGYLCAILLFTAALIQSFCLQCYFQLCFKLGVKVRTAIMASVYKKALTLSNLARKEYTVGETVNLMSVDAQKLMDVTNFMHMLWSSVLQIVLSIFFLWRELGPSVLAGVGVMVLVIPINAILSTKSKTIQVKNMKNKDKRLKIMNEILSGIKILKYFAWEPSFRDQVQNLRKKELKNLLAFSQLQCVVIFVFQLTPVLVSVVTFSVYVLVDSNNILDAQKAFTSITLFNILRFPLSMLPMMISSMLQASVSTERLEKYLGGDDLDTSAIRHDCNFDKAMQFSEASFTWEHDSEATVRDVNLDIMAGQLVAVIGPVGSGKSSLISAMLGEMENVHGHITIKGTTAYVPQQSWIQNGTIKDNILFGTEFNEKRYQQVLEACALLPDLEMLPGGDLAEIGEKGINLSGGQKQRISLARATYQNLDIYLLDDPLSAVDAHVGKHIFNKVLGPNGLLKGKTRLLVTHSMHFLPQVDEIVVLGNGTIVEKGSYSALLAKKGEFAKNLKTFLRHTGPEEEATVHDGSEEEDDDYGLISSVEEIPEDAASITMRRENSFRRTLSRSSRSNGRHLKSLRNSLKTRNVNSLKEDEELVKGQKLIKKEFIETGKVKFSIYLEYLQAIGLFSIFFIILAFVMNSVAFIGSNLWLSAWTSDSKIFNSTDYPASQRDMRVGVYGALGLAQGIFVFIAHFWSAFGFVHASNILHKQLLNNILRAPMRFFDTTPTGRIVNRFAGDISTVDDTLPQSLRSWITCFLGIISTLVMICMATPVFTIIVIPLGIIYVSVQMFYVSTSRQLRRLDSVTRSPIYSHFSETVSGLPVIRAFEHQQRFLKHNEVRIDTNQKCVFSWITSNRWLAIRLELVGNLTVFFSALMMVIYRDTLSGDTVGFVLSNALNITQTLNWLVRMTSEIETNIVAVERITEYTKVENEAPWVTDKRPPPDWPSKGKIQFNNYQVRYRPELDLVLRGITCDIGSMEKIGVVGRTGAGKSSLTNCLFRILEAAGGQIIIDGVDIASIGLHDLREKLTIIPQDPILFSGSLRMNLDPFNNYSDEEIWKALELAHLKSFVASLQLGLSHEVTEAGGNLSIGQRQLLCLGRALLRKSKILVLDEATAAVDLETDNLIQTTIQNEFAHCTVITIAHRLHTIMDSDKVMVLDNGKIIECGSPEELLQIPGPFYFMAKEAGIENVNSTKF

SMILES: CN(CCCC(C[C@@H]1O[C@H](C(=O)O)[C@@H](O)[C@H](O)[C@H]1O)c1cccnc1)N=O (stereo partly specified)
- Activity: substrate [+]
